Literature values as cited in patent publication US20200146297A1, “FAST SYMPTOM HERBICIDAL COMPOSITIONS CONTAINING AN ORGANO[…], BI[…] A[…] SURFACTANT” (Monsanto Technology LLC, priority 2016, published 2020).

Experiments:
[1] = known to decompose
plant = settings: after treatment

Structure (SMILES) | pH at which decomposition occurs [1] | time until visual symptoms of treatment appear (plant)
c1cc[n+]2c(c1)-c1cccc[n+]1CC2 [Diquat dibromide] | greater than 7 | –
O=C(O)CNCP(=O)(O)O [glyphosate, N-(phosphonomethyl)glycine] | – | one week or more
